pEC50: −log10 of the molar value.
Test system: recombinant NL-Rluc virus
Assay: Inhibition of HIV replication (NL-RLuc virus in MT-2 cells, luciferase readout)
Type: cell-based
Conditions: Human immunodeficiency virus 1, MT2, 120 h, 5 days of incubation, 10% FBS

## Cc1nc2cc3nn2c(c1[C@H](OC(C)(C)C)C(=O)O)N1CCC(C)(CC1)OCCC[C@H](C)Oc1ccccc1-c1cccc-3c1 [Example 24, (2S)-2-(tert-Butoxy)-2-[(22S)-4,22,27-trimethyl-21,26-dioxa-1,5,7,8-tetraazahexacyclo[25.2.2.1^6,^9.1^10,^14.0^2,^7.0^15,^20]tritriaconta-2,4,6(33),8,10(32),11,13,15(20),16,18-decaen-3-yl]acetic acid]
  pEC50: 8.10

## Cc1nc2cc3nn2c(c1[C@H](OC(C)(C)C)C(=O)O)N1CCC(C)(CC1)OCCC[C@@H](C)Oc1ccccc1-c1cccc-3c1 [Example 25, (2S)-2-(tert-Butoxy)-2-[(22R)-4,22,27-trimethyl-21,26-dioxa-1,5,7,8-tetraazahexacyclo[25.2.2.1^6,^9.1^10,^14.0^2,^7.0^15,^20]tritriaconta-2,4,6(33),8,10(32),11,13,15(20),16,18-decaen-3-yl]acetic acid]
  pEC50: 7.42

## Cc1nc2cc3nn2c(c1[C@H](OC(C)(C)C)C(=O)O)N1CCC(C)(CC1)OCC=CCCOc1ccccc1-c1cccc-3c1 [Example 26, (2S)-2-(tert-Butoxy)-2-[4,28-dimethyl-21,27-dioxa-1,5,7,8-tetraazahexacyclo[26.2.2.1^6,^9.1^10,^14.0^2,^7.0^15,^20]tetratriaconta-2,4,6(34),8,10(33),11,13,15(20),16,18,24-undecaen-3-yl]acetic acid]
  pEC50: 7.39

## Cc1nc2cc3nn2c(c1[C@H](OC(C)(C)C)C(=O)O)N1CCC(C)(CC1)OCCCCCOc1ccccc1-c1cccc-3c1 [Example 27, (2S)-2-(tert-Butoxy)-2-{4,28-dimethyl-21,27-dioxa-1,5,7,8-tetraazahexacyclo[26.2.2.1^6,^9.1^10,^14.0^2,^7.0^15,^20]tetratriaconta-2,4,6(34),8,10(33),11,13,15(20),16,18-decaen-3-yl}acetic acid]
  pEC50: 8.00

## Cc1nc2cc3nn2c(c1[C@H](OC(C)(C)C)C(=O)O)N1CCC(C)(CC1)OCCCC[C@@H](C)Oc1ccccc1-c1cccc-3c1 [Example 28, (2S)-2-(tert-Butoxy)-2-[(22R)-4,22,28-trimethyl-21,27-dioxa-1,5,7,8-tetraazahexacyclo[26.2.2.1^6,^9.1^10,^14.0^2,^7.0^15,^20]tetratriaconta-2,4,6(34),8,10(33), 11, 13, 15 (20),16,18-decaen-3-yl]acetic acid]
  pEC50: 7.40

## Cc1nc2cc3nn2c(c1[C@H](OC(C)(C)C)C(=O)O)N1CCC(C)(CC1)OCCCC[C@H](C)Oc1ccccc1-c1cccc-3c1 [Example 29, (2S)-2-(tert-Butoxy)-2-[(22S)-4,22,28-trimethyl-21,27-dioxa-1,5,7,8-tetraazahexacyclo[26.2.2.1^6,^9.1^10,^14.0^2,^7.0^15,^20]tetratriaconta-2,4,6(34),8,10(33), 11, 13, 15 (20),16,18-decaen-3-yl]acetic acid]
  pEC50: 7.74

## Cc1nc2cc3nn2c(c1[C@H](OC(C)(C)C)C(=O)O)N1CCC(C)(CC1)OCCCCCCc1ccccc1-c1cccc-3c1 [Example 30, (2S)-2-(tert-Butoxy)-2-{4,28-dimethyl-27-oxa-1,5,7,8-tetraazahexacyclo[26.2.2.1^6,^9.1^10,^14.0^2,^7.0^15,^20]tetratriaconta-2,4,6(34),8,10(33), 11, 13, 15(20),16,18-decaen-3-yl}acetic acid]
  pEC50: 7.57

## Cc1nc2cc3nn2c(c1[C@H](OC(C)(C)C)C(=O)O)N1CCC(C)(CC1)OCC=CCOc1ccc(Cl)cc1-c1cccc-3c1 [Example 31, (2S)-2-(tert-Butoxy)-2-[17-chloro-4,2,7-dimethyl-21,26-dioxa-1,5,7,8-tetraazahexacyclo[25.2.2.1^6,^9.1^10,^14.0^2,^7.0^15,^20]tritriaconta-2,4,6(33),8,10(32),11,13,15(20),16,18,23-undecaen-3-yl]acetic acid]
  pEC50: 8.22

## Cc1nc2cc3nn2c(c1[C@H](OC(C)(C)C)C(=O)O)N1CCC(C)(CC1)OCCCCOc1ccc(Cl)cc1-c1cccc-3c1 [Example 32, (2S)-2-(tert-Butoxy)-2-{17-chloro-4,27-dimethyl-21,26-dioxa-1,5,7,8-tetraazahexacyclo[25.2.2.1^6,^9.1^10,^14.0^2,^7.0^15,^20]tritriaconta-2,4,6(33),8,10(32),11,13,15(20),16,18-decaen-3-yl}acetic acid]
  pEC50: 8.05

## Cc1ccc2c(c1)-c1cccc(c1)-c1cc3nc(C)c([C@H](OC(C)(C)C)C(=O)O)c(n3n1)N1CCC(C)(CC1)OCC=CCO2 [Example 33, (2S)-2-(tert-Butoxy)-2-[4,17,27-trimethyl-21,26-dioxa-1,5,7,8-tetraazahexacyclo[25.2.2.1^6,^9.1^10,^14.0^2,^7.0^15,^20]tritriaconta-2,4,6(33),8,10(32),11,13,15(20),16,18,23-undecaen-3-yl]acetic acid]
  pEC50: 8.10

## Cc1ccc2c(c1)-c1cccc(c1)-c1cc3nc(C)c([C@H](OC(C)(C)C)C(=O)O)c(n3n1)N1CCC(C)(CC1)OC=CCCO2 [Example 34, (2S)-2-(tert-Butoxy)-2-[4,17,27-trimethyl-21,26-dioxa-1,5,7,8-tetraazahexacyclo[25.2.2.1^6,^9.1^10,^14.0^2,^7.0^15,^20]tritriaconta-2,4,6(33),8,10(32),11,13,15(20),16,18,24-undecaen-3-yl]acetic acid]
  pEC50: 7.85

## Cc1ccc2c(c1)-c1cccc(c1)-c1cc3nc(C)c([C@H](OC(C)(C)C)C(=O)O)c(n3n1)N1CCC(C)(CC1)OCCCCO2 [Example 35, (2S)-2-(tert-Butoxy)-2-{4,17,27-trimethyl-21,26-dioxa-1,5,7,8-tetraazahexacyclo[25.2.2.1^6,^9.1^10,^14.0^2,^7.0^15,^20]tritriaconta-2,4,6(33),8,10(32),11,13,15(20),16,18-decaen-3-yl}acetic acid]
  pEC50: 8.00

## Cc1nc2cc3nn2c(c1[C@H](OC(C)(C)C)C(=O)O)N1CCC(C)(CC1)OC/C=C/CCc1ccncc1-c1cccc-3c1 [Example 36, (2S)-2-(tert-Butoxy)-2-[(23E)-4,27-dimethyl-26-oxa-1,5,7,8,17-pentaazahexacyclo[25.2.2.1^6,^9.1^10,^14.0^2,^7.0^15,^20]tritriaconta-2,4,6(33),8,10(32),11,13,15(20),16,18,23-undecaen-3-yl]acetic acid]
  pEC50: 7.47

## Cc1nc2cc3nn2c(c1[C@H](OC(C)(C)C)C(=O)O)N1CCC(C)(CC1)OC/C=C\CCc1ccncc1-c1cccc-3c1 [Example 37, (2S)-2-(tert-Butoxy)-2-[(23Z)-4,27-dimethyl-26-oxa-1,5,7,8,17-pentaazahexacyclo[25.2.2.1^6,^9.1^10,^14.0^2,^7.0^15,^20]tritriaconta-2,4,6(33),8,10(32), 11, 13, 15(20),16,18,23-undecaen-3-yl]acetic acid]
  pEC50: 8.70

## Cc1nc2cc3nn2c(c1[C@H](OC(C)(C)C)C(=O)O)N1CCC(C)(CC1)OCCCCCc1ccncc1-c1cccc-3c1 [Example 38, (2S)-2-(tert-Butoxy)-2-{4,27-dimethyl-26-oxa-1,5,7,8,17-pentaazahexacyclo[25.2.2.1^6,^9.1^10,^14.0^2,^7.0^15,^20]tritriaconta-2,4,6(33),8,10(32), 11, 13, 15 (20),16,18-decaen-3-yl}acetic acid]
  pEC50: 8.70

## Cc1nc2cc3nn2c(c1[C@H](OC(C)(C)C)C(=O)O)N1CCC(C)(/C=C/C=C\CCc2ccccc2-c2cccc-3c2)CC1 [Example 39, (2S)-2-(tert-Butoxy)-2-[(23Z,25E)-4,27-dimethyl-1,5,7,8-tetraazahexacyclo[25.2.2.1^6,^9.1^10,^14.0^2,^7.0^15,^20]tritriaconta-2,4,6(33),8,10(32),11,13, 15(20), 16,18,23,25-dodecaen-3-yl]acetic acid]
  pEC50: 6.93

## Cc1nc2cc3nn2c(c1[C@H](OC(C)(C)C)C(=O)O)N1CCC(C)(/C=C/C=C/CCc2ccccc2-c2cccc-3c2)CC1 [Example 40, (2S)-2-(tert-Butoxy)-2-[(23E,25E)-4,27-dimethyl-1,5,7,8-tetraazahexacyclo[25.2.2.1^6,^9.1^10,^14.0^2,^7.0^15,^20]tritriaconta-2,4,6(33),8,10(32),11,13, 15(20), 16,18,23,25-dodecaen-3-yl]acetic acid]
  pEC50: 7.47

## Cc1nc2cc3nn2c(c1[C@H](OC(C)(C)C)C(=O)O)N1CCC(C)(CCCCCCc2ccccc2-c2cccc-3c2)CC1 [Example 41, (2S)-2-(tert-Butoxy)-2-{4,27-dimethyl-1,5,7,8-tetraazahexacyclo[25.2.2.1^6,^9.1^10,^14.0^2,^7.0^15,^20]tritriaconta-2,4,6(33),8,10(32), 11,13,15(20),16,18-decaen-3-yl}acetic acid]
  pEC50: 6.74

## Cc1nc2cc3nn2c(c1[C@H](OC(C)(C)C)C(=O)O)N1CCC(C)(/C=C/C=C\COc2ccc(Cl)cc2-c2cccc-3c2)CC1 [Example 42, (2S)-2-(tert-Butoxy)-2-[(23Z,25E)-17-chloro-4,27-dimethyl-21-oxa-1,5,7,8-tetraazahexacyclo[25.2.2.1^6,^9.1^10,^14.0^2,^7.0^15,^20]tritriaconta-2,4,6(33),8,10(32), 11, 13, 15(20),16,18,23,25-dodecaen-3-yl]acetic acid]
  pEC50: 7.46

## Cc1nc2cc3nn2c(c1[C@H](OC(C)(C)C)C(=O)O)N1CCC(C)(/C=C/C=C/COc2ccc(Cl)cc2-c2cccc-3c2)CC1 [Example 43, (2S)-2-(tert-Butoxy)-2-[(23E,25E)-17-chloro-4,27-dimethyl-21-oxa-1,5,7,8-tetraazahexacyclo[25.2.2.1^6,^9.1^10,^14.0^2,^7.0^15,^20]tritriaconta-2,4,6(33),8,10(32), 11, 13, 15(20),16,18,23,25-dodecaen-3-yl]acetic acid]
  pEC50: 6.87

## Cc1nc2cc3nn2c(c1[C@H](OC(C)(C)C)C(=O)O)N1CCC(C)(CCCCCOc2ccc(Cl)cc2-c2cccc-3c2)CC1 [Example 44, (2S)-2-(tert-Butoxy)-2-{17-chloro-4,27-dimethyl-21-oxa-1,5,7,8-tetraazahexacyclo[25.2.2.1^6,^9.1^10,^14.0^2,^7.0^15,^20]tritriaconta-2,4, 6(33), 8, 10(32), 11, 13, 15 (20),16,18-decaen-3-yl}acetic acid]
  pEC50: 7.39
